Assay results from patent publication US4975434A, “Antiviral and anticancer cyclopentenyl cytosine” (priority 1989, dated 1990).
In brackets after ≈: the same amount, converted by molar mass. Several values for one entry are separate records, joined by “and”; a condition that tells them apart may be missing. Equal values may be shown once. Read-outs that look alike come from different tables or passages of the source.

Experiments:
tumors [1] = experiment: Antitumor activity (general statement)
[2] = test system: enzyme which hydrolyzes S-adenosyl-L-homocysteine (AdoHcy); conditions: literature; cited from earlier work
[3] = test system: Vesicular Stomatitis virus, strain Indiana; assay type: cell-based; conditions: L929 cells, strain Indiana; two determinations
[4] = test system: phosphorylation and deamination; conditions: cited from earlier work
MX-1 Mammary = experiment: Human tumor xenograft in athymic mice, MX-1 mammary (subrenal capsule); conditions: for % tumor weight inhibition: Table IV, QD1-9, day 0 to day 11
LOX Melanoma = experiment: Human tumor xenograft in athymic mice, LOX melanoma (intraperitoneal); conditions: for % ILS: Table IV, QD1-9
CTP synthesase = experiment: Inhibition of CTP synthesis (CTP synthesase); assay type: biochemical
L1210 leukemia [5] = experiment: In vivo antitumor test, L1210 leukemia in mice; conditions: Table IV, QD1-9, terminated day 60
L1210 leukemia [6] = conditions: cited from earlier work; for increase in life span: literature values
[7] = test system: Herpes simplex type 2, strain MS; experiment: Cytopathogenic inhibition test, HSV-2; assay type: cell-based; conditions: Vero cells, strain MS; for IC50: Human alphaherpesvirus 2, inhibition of virus-induced cytopathogenic effects, read-out: ID50 (the source's name)
[8] = test system: Herpes simplex type 1 (TK+), strain E-377; experiment: Cytopathogenic inhibition test, HSV-1 TK+; assay type: cell-based; conditions: for IC50: Human alphaherpesvirus 1, inhibition of virus-induced cytopathogenic effects, read-out: ID50 (the source's name); for IC50 / VR (virus rating): Vero cells, strain E-377
[9] = test system: Herpes simplex type 1 (TK-), strain HF; experiment: microbe, parasite or virus in culture; assay type: cell-based
[10] = test system: Vaccinia, strain Lederle CA; experiment: microbe, parasite or virus in culture; assay type: cell-based
[11] = test system: vaccinia virus (IHD strain); assay type: in vivo, mouse (CD-I); conditions: Ara-A 300 mg/kg, QD 1-7 subcutaneous; PBS control 45.8
H.Ep.-2 cells = conditions: literature; cited from earlier work
adenosine deaminase = conditions: literature; cited from earlier work
[12] = test system: quiescent normal cells; malignant cell lines; conditions: subtoxic concentrations; literature; cited from earlier work
L1210 tumor cells = conditions: literature; cited from earlier work
Rhinovirus 1A = conditions: literature; cited from earlier work
[13] = test system: Herpes simplex type 1 (TK-), strain HF; conditions: literature; cited from earlier work
several DNA viruses = conditions: literature; cited from earlier work
influenza viruses = conditions: literature; cited from earlier work
two other RNA viruses = conditions: literature; cited from earlier work
[14] = test system: Varicella-Zoster virus, isolate DM625; experiment: Varicella-Zoster Virus (VZV) Plaque Reduction Assay; assay type: cell-based; conditions: Human alphaherpesvirus 3, 144 h, Huf cells
[15] = test system: Cytomegalovirus, strain AD 169; experiment: Cytomegalovirus (CMV) Yield Reduction Assay; assay type: cell-based
[16] = test system: MRC5 (diploid human embryonic lung cells); experiment: Toxicity to MRC5 host cells (gross cell morphology) in the CMV assay; conditions: 320 μg/ml
cells = conditions: literature; cited from earlier work
[17] = test system: Punta Toro virus, strain Adames; experiment: microbe, parasite or virus in culture; assay type: cell-based, Punta Toro virus; host Vero cells
[18] = test system: Janapese Encephalitis virus, strain Najayama; experiment: Antiviral test in vitro, Japanese encephalitis virus; assay type: cell-based, Japanese encephalitis virus; host Vero cells
[19] = test system: Influenza (Hong Kong), strain A2 /Aichi/2/68; experiment: microbe, parasite or virus in culture; assay type: cell-based, Influenza virus; host MDCK (Madin Darby canine kidney cells)
[20] = test system: Yellow Fever virus, strain Asibi; experiment: microbe, parasite or virus in culture; assay type: cell-based, Yellow Fever virus; host Vero cells
tumors [21] = conditions: literature; cited from earlier work

Nc1ccn([C@@H]2C=C(CO)[C@@H](O)[C@@H]2O)c(=O)n1
antitumor activity (tumors [1]): complete lack of antitumor activity

Nc1nccc2c1ncn2[C@@H]1C[C@H](CO)[C@@H](O)[C@H]1O [3-Deazaaristeromycin, 3-deazaaristeromycin, reference compound]
inhibition of AdoHcy hydrolase [2]: very potent and specific inhibitor | VR (virus rating) [3]: 2.1 and 3.0 | phosphorylation and deamination [4]: resistance towards phosphorylation and deamination

O=C1C=CN([C@@H]2O[C@H](CO)[C@@H](O)[C@H]2O)C(=O)C1 [3-Deazauridine, 3-deazauridine, reference compound]
% tumor weight inhibition (MX-1 Mammary; 3-Deazauridine 200 mg/kg): 11% | % tumor weight inhibition (MX-1 Mammary; 3-Deazauridine 300 mg/kg): 64% | activity (MX-1 Mammary; result in words): inactive | % ILS (LOX Melanoma; 3-Deazauridine 200 mg/kg): 5% | % ILS (LOX Melanoma; 3-Deazauridine 300 mg/kg): 4% | tumor burden at the end of treatment (LOX Melanoma; in vivo): three-log10 increase in tumor burden | activity (LOX Melanoma; result in words): inactive | inhibition of CTP synthesis (CTP synthesase; result in words): powerful inhibitors of CTP synthesis | % ILS (L1210 leukemia [5]; 3-Deazauridine 25 mg/kg): 72% | % ILS (L1210 leukemia [5]; 3-Deazauridine 50 mg/kg): 61% | % ILS (L1210 leukemia [5]; 3-Deazauridine 100 mg/kg): 80%

Nc1nccc2c1ncn2[C@@H]1O[C@H](CO)[C@@H](O)[C@H]1O [3-deazaadenosine]
phosphorylation and deamination ([4]; literature): resistance towards phosphorylation and deamination

Nc1ccn(C2CC(CO)C(O)C2O)c(=O)n1 (stereo not drawn) ["ara"-analogue]
increase in life span (L1210 leukemia [6]): 104% | activity against L1210 leukemia (L1210 leukemia [6]; literature, J. Pharm. Chem., 68, 668 (1979)): activity

Nc1nc2c(ncn2COCCO)c(=O)[nH]1 [Acyclovir]
IC50 [7]: 5.3 µg/mL (≈ 23.5 µM) | VR (virus rating) [7]: 4.5 | IC50 [8]: 0.7 µg/mL (≈ 3.11 µM) | VR (virus rating) [8]: 6.7 | antiviral activity ([8]; result in words): more active that CPE-C | antiviral activity ([9]; result in words): inactive

Nc1ncnc2c1ncn2[C@@H]1O[C@H](CO)[C@@H](O)[C@@H]1O [Ara-A, arabinosyl adenine, reference compound]
IC50 [7]: 49.9 µg/mL (≈ 187 µM) | VR (virus rating) [7]: 1.3 | IC50 ([10]; Orthopoxvirus vaccinia, Vero, in Chlorocebus sabaeus, read-out: ID50): 9.8 µg/mL (≈ 36.7 µM) | VR (virus rating) ([10]; Vero cells, strain Lederle CA): 3.1 | Pox Count (mean value, 20 mice) [11]: 2.8 | IC50 [8]: 13.6 µg/mL (≈ 50.9 µM) | VR (virus rating) [8]: 1.8 | IC50 ([9]; Human alphaherpesvirus 1, Vero, in Chlorocebus sabaeus, read-out: ID50, Vero cells, strain HF, inhibition of virus-induced cytopathogenic effects, two determinations): 2.1 µg/mL (≈ 7.86 µM) | VR (virus rating) ([9]; Vero cells, strain HF, two determinations): 3.3 and 2.9

Nc1ncnc2c1ncn2[C@@H]1C[C@H](CO)[C@@H](O)[C@H]1O [C-Ado]
activity in the in vivo mouse L1210 model (L1210 leukemia [6]; literature): inactivity in the in vivo mouse L1210 model system | cytotoxicity (H.Ep.-2 cells): highly cytotoxic | affinity for adenosine deaminase relative to adenosine (adenosine deaminase): a hundredfold lower | effect on malignant cell lines [12]: inhibited growth | effect on quiescent normal cells [12]: induced cell proliferation | cytotoxicity (L1210 tumor cells): highly cytotoxic

Nc1ccn([C@@H]2C[C@H](CO)[C@@H](O)[C@H]2O)c(=O)n1 [Carbodine]
increase in life span (L1210 leukemia [6]): 82% | antiviral activity (Rhinovirus 1A): Slight carbodine activity | potency against HSV-1 TK- vs TK+ [13]: more potent against a strain of the HSV-1 virus deficient in its ability to induce thymidine kinase | antiviral activity (several DNA viruses): Good activity | antiviral activity (influenza viruses): very effective | antiviral activity (two other RNA viruses): Slight carbodine activity

Nc1nc2c(ncn2COC(CO)CO)c(=O)[nH]1 [DHPG, 9(1,3-Dihydroxy-2-propoxymethyl)guanine, reference compound]
inhibition at 1 µg/mL ([14]; 1.0 μg/ml): 44% | inhibition at 3.2 µg/mL ([14]; 3.2 μg/ml): 46% | inhibition at 10 µg/mL ([14]; 10 μg/ml): 69% | inhibition at 32 µg/mL ([14]; 32 μg/ml): 85% | inhibition at 100 µg/mL ([14]; 100 μg/ml): 100% | inhibition at 320 µg/mL ([14]; 320 μg/ml): 100% | log reduction at 1 µg/mL ([15]; Human betaherpesvirus 5, 144 h, 1.0 μg/ml, MRC5 cells, read-out: Reduction in Virus Yield): 1.1 | log reduction at 10 µg/mL ([15]; Human betaherpesvirus 5, 144 h, 10 μg/ml, MRC5 cells, read-out: Reduction in Virus Yield): 3.8 | log reduction at 32 µg/mL ([15]; Human betaherpesvirus 5, 144 h, 32 μg/ml, MRC5 cells, read-out: Reduction in Virus Yield): 5.3 | log reduction at 100 µg/mL ([15]; Human betaherpesvirus 5, 144 h, 100 μg/ml, MRC5 cells, read-out: Reduction in Virus Yield): 5.3 | log reduction at 320 µg/mL ([15]; Human betaherpesvirus 5, 144 h, 320 μg/ml, MRC5 cells, read-out: Reduction in Virus Yield): 5.3 | antiviral activity ([15]; result in words): superior | Host cell toxicity (gross cell morphology) [16]: Very slightly toxic

Nc1ncnc2c1ncn2[C@@H]1C=C(CO)[C@@H](O)[C@H]1O [Neplanocin A, 9[(1'R,2'S,3'R)-4'-Hydroxymethyl-2',3'dihydroxy-4 cyclopenten-1'-yl]adenine]
inhibition of AdoHcy hydrolase [2]: potent inhibitor | phosphorylation and deamination ([4]; literature): readily phosphorylated | side effects including cytotoxicity (cells): multiplicity of side effects including cytotoxicity

NC(=O)c1ncn([C@@H]2O[C@H](CO)[C@@H](O)[C@H]2O)n1 [Ribavirin, reference compound]
VR (virus rating) [17]: 1.8 | IC50 ([17]; Punta Toro virus, Vero, read-out: ID50): 20.1 µg/mL (≈ 82.3 µM) | IC50 ([18]; Japanese encephalitis virus, Vero, read-out: ID50): 3 µg/mL (≈ 12.3 µM) | VR (virus rating) ([18]; Vero cells, strain Najayama): 2.4 | VR (virus rating) [19]: 3.6 | IC50 ([19]; MDCK, in Canis lupus familiaris, read-out: ID50): 18.7 µg/mL (≈ 76.6 µM)

c1c[se]cn1 [Selenazole, reference compound]
VR (virus rating) ([20]; Vero cells, strain Asibi): 2.4 | IC50 ([20]; Yellow fever virus, Vero, read-out: ID50): 1.8 µg/mL (≈ 13.6 µM) | TI (therapeutic index) ([20]; minimum toxic drug concentration / ID50, Vero cells): 0.6

Nc1ccn([C@@H]2O[C@H](CO)[C@@H](O)[C@@H]2O)c(=O)n1 [ara-C, cytosine arabinoside]
activity against human and animal tumors (tumors [21]): well-known activity

Nc1ccn([C@@H]2C=C(COP(=O)(O)OP(=O)(O)OP(=O)(O)O)[C@@H](O)[C@H]2O)c(=O)n1 [triphosphate metabolite of CPE-C]
inhibition of CTP-synthesase (CTP synthesase; triphosphate isolated from L1210 cell extracts): responsible for the inhibition of CTP-synthesase
